In assay [1] the target is Programmed cell death protein 1/Programmed cell death 1 ligand 1 (Homo sapiens, UniProt Q9NZQ7). Briefly: Inhibition of PD-1/PD-L1 (unknown origin) interaction incubated for 15 mins by HTRF assay. Type of assay: protein-complex assay.
The subject of the next assay is Jurkat. Put plainly: Cytotoxicity against human Jurkat cells assessed as cell growth inhibition incubated for 48 hrs by MTT assay. It counts as functional, cell-based.

Sequence of Programmed cell death protein 1/Programmed cell death 1 ligand 1 (Q15116 whole entry): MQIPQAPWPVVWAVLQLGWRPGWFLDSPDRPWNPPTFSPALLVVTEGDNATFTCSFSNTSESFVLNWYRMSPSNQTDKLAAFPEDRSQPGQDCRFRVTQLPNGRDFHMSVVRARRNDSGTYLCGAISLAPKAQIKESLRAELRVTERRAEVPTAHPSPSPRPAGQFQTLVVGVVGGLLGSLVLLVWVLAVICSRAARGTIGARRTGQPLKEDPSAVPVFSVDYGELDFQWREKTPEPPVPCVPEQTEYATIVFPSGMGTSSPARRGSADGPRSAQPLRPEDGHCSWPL
Sequence of Programmed cell death protein 1/Programmed cell death 1 ligand 1 (Q9NZQ7 whole entry): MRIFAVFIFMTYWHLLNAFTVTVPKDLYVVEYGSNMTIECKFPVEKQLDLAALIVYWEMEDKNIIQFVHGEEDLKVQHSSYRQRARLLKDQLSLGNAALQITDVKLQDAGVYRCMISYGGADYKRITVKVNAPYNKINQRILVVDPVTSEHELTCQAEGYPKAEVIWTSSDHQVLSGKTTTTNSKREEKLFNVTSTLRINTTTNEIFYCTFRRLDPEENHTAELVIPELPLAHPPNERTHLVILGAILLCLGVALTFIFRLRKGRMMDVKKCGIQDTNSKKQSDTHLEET

On to `COc1nc(OCc2cccc(-c3ccccc3)c2C)ccc1CNCc1cn([C@@H]2OC[C@@H](O)[C@H](O)[C@H]2O)nn1`, for which the IC50 in assay [1] is 110 nM; in the assay with Jurkat, 25500 nM.
`COc1nc(OCc2cccc(-c3ccccc3)c2C)ccc1CNCc1cn([C@@H]2O[C@H](CO)[C@@H](O)[C@H](OC)[C@H]2O)nn1`: the figures for the IC50 (in assay [1]; in the assay on Jurkat) were 305 nM and 34300 nM, respectively.
Consider `COc1ccc(CNCc2cn([C@H]3OC[C@@H](O)[C@H](O)[C@@H]3O)nn2)cc1OCc1cccc(-c2ccccc2)c1C`, for which the figures for the IC50 (in assay [1]; in the assay on Jurkat) were 503 nM and 43500 nM, respectively.
Taken in the same sequence, the figures for `COc1ccc(CNCc2cn([C@@H]3OC[C@H](O)[C@H](O)[C@H]3O)nn2)cc1OCc1cccc(-c2ccccc2)c1C` were 1240 nM and 49200 nM.
Taken in the same sequence, the figures for `COc1cc(OCc2cccc(-c3ccccc3)c2C)cc(OC)c1CNCc1cnnn1[C@H]1OC[C@@H](O)[C@H](O)[C@@H]1O` were 169 nM and 24900 nM.
Taken in the same sequence, the figures for `COc1ccc(CNCc2cn([C@H]3O[C@@H](C)[C@@H](O)[C@@H](O)[C@@H]3O)nn2)cc1OCc1cccc(-c2ccccc2)c1C` were 1920 nM and 53100 nM.
With `COc1nc(OCc2cccc(-c3ccccc3)c2C)ccc1CNCc1cnnn1[C@H]1OC[C@@H](O)[C@H](O)[C@@H]1O`, the figures for the IC50 (in assay [1]; with Jurkat) were 118 nM and 26700 nM, respectively.
Taken in the same sequence, the figures for `COc1nc(OCc2cccc(-c3ccccc3)c2C)ccc1CNCc1cn([C@@H]2O[C@@H]3CO[C@@H](c4ccccc4)O[C@H]3[C@H](O)[C@H]2O)nn1` were 461 nM and 8800 nM.
Taken in the same sequence, the figures for `COc1cc(OCc2cccc(-c3ccccc3)c2C)cc(OC)c1CNCc1cn([C@H]2O[C@H](CO)[C@@H](O)[C@H](O)[C@@H]2O)nn1` were 114 nM and 50500 nM.
Taken in the same sequence, the figures for `COc1cc(OCc2cccc(-c3ccccc3)c2C)cc(OC)c1CNCc1cn([C@@H]2O[C@H](CO)[C@@H](O)[C@H](OC)[C@H]2O)nn1` were 355 nM and 44000 nM.
With `COc1ccc(CNCc2cn([C@@H]3O[C@H](CO)[C@@H](O)[C@H](OC)[C@H]3O)nn2)cc1OCc1cccc(-c2ccccc2)c1C`, the results for the IC50 (in assay [1]; in the assay on Jurkat) were 384 nM and 50000 nM, respectively.
As for `COc1nc(OCc2cccc(-c3ccccc3)c2C)ccc1CNCc1cn([C@@H]2O[C@H](CO)[C@@H](O)[C@H](O)[C@H]2NC(C)=O)nn1`, the IC50 in assay [1] was 23.7 nM; in the assay with Jurkat, more than 100000 nM.
Turning to `COc1nc(OCc2cccc(-c3ccccc3)c2C)ccc1CNCc1cn([C@H]2O[C@H](CO)[C@@H](O)[C@H](O)[C@@H]2O)nn1`, the IC50 in assay [1] amounted to 164 nM; in the assay with Jurkat, 46000 nM.
`COc1cc(OCc2cccc(-c3ccccc3)c2C)cc(OC)c1CNCc1cn([C@H]2O[C@@H](C)[C@@H](O)[C@@H](O)[C@@H]2O)nn1`: the IC50 worked out at 161 nM in assay [1] and 30800 nM in the assay on Jurkat.
Taken in the same sequence, the figures for `COc1cc(OCc2cccc(-c3ccccc3)c2C)cc(OC)c1CNCc1cn([C@@H]2O[C@H](CO)[C@@H](O)[C@H](O)[C@H]2O)nn1` were 147 nM and more than 100000 nM.
Consider `COc1cc(OCc2cccc(-c3ccccc3)c2C)cc(OC)c1CNCc1cn([C@@H]2O[C@H](CO)[C@@H](O)[C@H](O)[C@H]2NC(C)=O)nn1`, for which the figures for the IC50 (in assay [1]; in the assay on Jurkat) were 30 nM and more than 100000 nM, respectively.
Taken in the same sequence, the figures for `COc1nc(OCc2cccc(-c3ccccc3)c2C)ccc1CNCc1cn([C@@H]2O[C@H](CO)[C@@H](O)[C@H](O)[C@H]2O)nn1` were 56.1 nM and more than 100000 nM.
Taken in the same sequence, the figures for `COc1ccc(CNCc2cn([C@@H]3OC[C@@H](O)[C@H](O)[C@H]3O)nn2)cc1OCc1cccc(-c2ccccc2)c1C` were 1780 nM and 47500 nM.
With `COc1cc(OCc2cccc(-c3ccccc3)c2C)cc(OC)c1CNCc1cn([C@@H]2OC[C@@H](O)[C@@H](O)[C@H]2O)nn1`, the IC50 is 206 nM in assay [1] and 14900 nM in the assay with Jurkat.

The values are drawn from ChEMBL document CHEMBL5338801, “Carbohydrate Strengthens the Immunotherapeutic Effect of Small-Molecule PD-L1 Inhibitors” (J Med Chem, 2023).
